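A five-concentration, 48-hour dose response in 96-well plates underlies each endpoint, interpolated linearly between surrounding concentrations. TGI is the concentration that stops growth completely.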
What was measured:
Assay in all cases: NCI-60 cell line screen, 48 h
HCT-116 colon = system: HCT-116 colon
MDA-N = system: MDA-N
PC-3 prostate = system: PC-3 prostate
HL-60(TB) leukemia = system: HL-60(TB) leukemia
MDA-MB-435 = system: MDA-MB-435
CCRF-CEM leukemia = system: CCRF-CEM leukemia
LOX IMVI melanoma = system: LOX IMVI melanoma
UO-31 renal = system: UO-31 renal
MCF7 breast = system: MCF7 breast
NCI-H460 lung = system: NCI-H460 lung
TK-10 renal = system: TK-10 renal
SF-295 CNS = system: SF-295 CNS
UACC-62 melanoma = system: UACC-62 melanoma
MALME-3M melanoma = system: MALME-3M melanoma
BT-549 breast = system: BT-549 breast
ACHN renal = system: ACHN renal
HT29 colon = system: HT29 colon
SK-OV-3 ovarian = system: SK-OV-3 ovarian
SNB-19 CNS = system: SNB-19 CNS
SF-268 CNS = system: SF-268 CNS
RPMI-8226 leukemia = system: RPMI-8226 leukemia
HS 578T breast = system: HS 578T breast
HOP-92 NSCLC = system: HOP-92 NSCLC
IGROV1 ovarian = system: IGROV1 ovarian
SK-MEL-2 melanoma = system: SK-MEL-2 melanoma
OVCAR-3 ovarian = system: OVCAR-3 ovarian
SK-MEL-28 melanoma = system: SK-MEL-28 melanoma
A549 NSCLC = system: A549 NSCLC
MDA-MB-231 breast = system: MDA-MB-231 breast
HCT-15 colon = system: HCT-15 colon
MOLT-4 leukemia = system: MOLT-4 leukemia
M14 melanoma = system: M14 melanoma
SW-620 colon = system: SW-620 colon
OVCAR-8 ovarian = system: OVCAR-8 ovarian
A498 renal = system: A498 renal
NCI-H23 lung = system: NCI-H23 lung
U251 CNS = system: U251 CNS
CAKI-1 renal = system: CAKI-1 renal
COLO 205 colon = system: COLO 205 colon
SF-539 CNS = system: SF-539 CNS
OVCAR-5 ovarian = system: OVCAR-5 ovarian
DU-145 prostate = system: DU-145 prostate
EKVX NSCLC = system: EKVX NSCLC
SK-MEL-5 melanoma = system: SK-MEL-5 melanoma
SR leukemia = system: SR leukemia
NCI-H226 lung = system: NCI-H226 lung
SN12C renal = system: SN12C renal
UACC-257 melanoma = system: UACC-257 melanoma
RXF 393 renal = system: RXF 393 renal
HCC-2998 colon = system: HCC-2998 colon
NCI/ADR-RES ovarian = system: NCI/ADR-RES ovarian
786-0 renal = system: 786-0 renal
K-562 leukemia = system: K-562 leukemia
HOP-62 NSCLC = system: HOP-62 NSCLC
T-47D breast = system: T-47D breast
KM12 colon = system: KM12 colon
OVCAR-4 ovarian = system: OVCAR-4 ovarian
SNB-75 CNS = system: SNB-75 CNS
NCI-H522 lung = system: NCI-H522 lung

COc1ccc(N2C(=O)CC(c3c[nH]c4ccccc34)C2=O)cc1 (centres undefined) showed a TGI (HCT-116 colon) greater than 100 µM, a TGI (MDA-N) greater than 100 µM and a TGI (PC-3 prostate) greater than 100 µM. The TGI (HL-60(TB) leukemia) was greater than 100 µM, the TGI (MDA-MB-435) was greater than 100 µM and the TGI (CCRF-CEM leukemia) was greater than 100 µM. The TGI (LOX IMVI melanoma) was greater than 100 µM, the TGI (UO-31 renal) was greater than 100 µM and the TGI (MCF7 breast) was greater than 100 µM. The TGI (NCI-H460 lung) was greater than 100 µM, the TGI (TK-10 renal) was greater than 100 µM and the TGI (SF-295 CNS) was greater than 100 µM. For the same molecule, the TGI (UACC-62 melanoma) was greater than 100 µM, the TGI (MALME-3M melanoma) was greater than 100 µM and the TGI (BT-549 breast) was greater than 100 µM. It also gave a TGI (ACHN renal) greater than 100 µM, a TGI (HT29 colon) greater than 100 µM and a TGI (SK-OV-3 ovarian) greater than 100 µM. It also gave a TGI (SNB-19 CNS) greater than 100 µM, a TGI (SF-268 CNS) greater than 100 µM and a TGI (RPMI-8226 leukemia) greater than 100 µM. For the same molecule, the TGI (HS 578T breast) was greater than 100 µM, the TGI (HOP-92 NSCLC) was greater than 100 µM and the TGI (IGROV1 ovarian) was greater than 100 µM. It also gave a TGI (SK-MEL-2 melanoma) greater than 100 µM, a TGI (OVCAR-3 ovarian) greater than 100 µM and a TGI (SK-MEL-28 melanoma) greater than 100 µM. For the same molecule, the TGI (A549 NSCLC) was greater than 100 µM, the TGI (MDA-MB-231 breast) was greater than 100 µM and the TGI (HCT-15 colon) was greater than 100 µM. It also gave a TGI (MOLT-4 leukemia) greater than 100 µM, a TGI (M14 melanoma) greater than 100 µM and a TGI (SW-620 colon) greater than 100 µM. For the same molecule, the TGI (OVCAR-8 ovarian) was greater than 100 µM, the TGI (A498 renal) was greater than 100 µM and the TGI (NCI-H23 lung) was greater than 100 µM. For the same molecule, the TGI (U251 CNS) was greater than 100 µM, the TGI (CAKI-1 renal) was greater than 100 µM and the TGI (COLO 205 colon) was greater than 100 µM. It also gave a TGI (SF-539 CNS) greater than 100 µM, a TGI (OVCAR-5 ovarian) greater than 100 µM and a TGI (DU-145 prostate) greater than 100 µM. The TGI (EKVX NSCLC) was greater than 100 µM, the TGI (SK-MEL-5 melanoma) was greater than 100 µM and the TGI (SR leukemia) was greater than 100 µM. The TGI (NCI-H226 lung) was greater than 100 µM, the TGI (SN12C renal) was greater than 100 µM and the TGI (UACC-257 melanoma) was greater than 100 µM. It also gave a TGI (RXF 393 renal) greater than 100 µM, a TGI (HCC-2998 colon) greater than 100 µM and a TGI (NCI/ADR-RES ovarian) greater than 100 µM. For the same molecule, the TGI (786-0 renal) was greater than 100 µM, the TGI (K-562 leukemia) was greater than 100 µM and the TGI (HOP-62 NSCLC) was greater than 100 µM.

With C=C1C(=O)O[C@H]2[C@H]3O[C@@H](C[C@@H]12)[C@](C)(O)CCCC(C)=CCC[C@H]3C the TGI (HCT-116 colon) was 31.1 µM, the TGI (MDA-N) was 75.8 µM and the TGI (PC-3 prostate) was 25.7 µM. It also gave a TGI (MDA-MB-435) of 15.8 µM, a TGI (CCRF-CEM leukemia) of 3.24 µM and a TGI (LOX IMVI melanoma) of 48.2 µM. It also gave a TGI (UO-31 renal) of 23.5 µM, a TGI (MCF7 breast) of 29.8 µM and a TGI (T-47D breast) of 44.6 µM. For the same molecule, the TGI (NCI-H460 lung) was 30.5 µM, the TGI (TK-10 renal) was 14.6 µM and the TGI (SF-295 CNS) was 31.7 µM. For the same molecule, the TGI (UACC-62 melanoma) was 22.8 µM, the TGI (BT-549 breast) was 3.07 µM and the TGI (KM12 colon) was 27.1 µM. The TGI (ACHN renal) was 21.7 µM, the TGI (HT29 colon) was 26.7 µM and the TGI (SK-OV-3 ovarian) was 35.3 µM. The TGI (SNB-19 CNS) was 32.4 µM, the TGI (OVCAR-4 ovarian) was 39 µM and the TGI (SF-268 CNS) was 20.7 µM. The TGI (RPMI-8226 leukemia) was 17.4 µM, the TGI (SNB-75 CNS) was 22.3 µM and the TGI (HS 578T breast) was 29.2 µM. The TGI (HOP-92 NSCLC) was 8.45 µM, the TGI (IGROV1 ovarian) was 5.05 µM and the TGI (SK-MEL-2 melanoma) was 28.7 µM. For the same molecule, the TGI (OVCAR-3 ovarian) was 27.5 µM, the TGI (SK-MEL-28 melanoma) was 25.9 µM and the TGI (A549 NSCLC) was 33.6 µM. The TGI (MDA-MB-231 breast) was 35.8 µM, the TGI (HCT-15 colon) was 84.9 µM and the TGI (MOLT-4 leukemia) was 8.09 µM. It also gave a TGI (SW-620 colon) of 23 µM, a TGI (OVCAR-8 ovarian) of 21 µM and a TGI (NCI-H522 lung) of 17.3 µM. It also gave a TGI (NCI-H23 lung) of 35.3 µM, a TGI (U251 CNS) of 29.8 µM and a TGI (CAKI-1 renal) of 28.5 µM. It also gave a TGI (COLO 205 colon) of 21 µM, a TGI (SF-539 CNS) of 26.9 µM and a TGI (OVCAR-5 ovarian) of 31.1 µM. The TGI (DU-145 prostate) was 39.6 µM, the TGI (EKVX NSCLC) was 22.4 µM and the TGI (SK-MEL-5 melanoma) was 31.1 µM. For the same molecule, the TGI (SR leukemia) was greater than 100 µM, the TGI (NCI-H226 lung) was 36.9 µM and the TGI (SN12C renal) was 71.4 µM. The TGI (UACC-257 melanoma) was 22.7 µM, the TGI (RXF 393 renal) was 20.3 µM and the TGI (HCC-2998 colon) was 23.6 µM. For the same molecule, the TGI (NCI/ADR-RES ovarian) was 22.7 µM, the TGI (786-0 renal) was greater than 100 µM and the TGI (K-562 leukemia) was 64.7 µM. It also gave a TGI (HOP-62 NSCLC) of 31.3 µM.
